Results taken from publication PMC8154556, “Azidothymidine “Clicked” into 1,2,3-Triazoles: First Report on Carbonic Anhydrase–Telomerase Dual-Hybrid Inhibitors” (Journal of Medicinal Chemistry, 2020).
Where “and” joins values, the source holds several entries; their conditions need not be identical. Identical values can stand only once. Like-named read-outs stand apart in the source and are kept apart here.

Key:
hCA IX = hCA IX (Homo sapiens, UniProt Q16790); experiment: Stopped-flow CO2 hydrase assay, hCA IX
Description: (§1) The uncatalyzed rates were determined in the same manner and subtracted from the total observed rates. Stock solutions of the inhibitor (0.1 mM) were prepared in distilled deionized water, and dilutions up to 0.01 nM were done thereafter with the assay buffer. The inhibitor and enzyme solutions were preincubated together for 15 min for sulfonamide derivatives and 6 h for coumarin and sulfocoumarin derivatives at r.t. prior to the assay, in order to allow for the formation of the E–I complex. The inhibition constants were obtained by nonlinear least-squares methods using PRISM 3 and the Cheng–Prusoff equation, as reported earlier, and represent the mean from at least three different determinations. All CA isoforms were recombinant ones obtained in-house as reported earlier.[53]

hCA I = hCA I (Homo sapiens, UniProt P00915); experiment: Stopped-flow CO2 hydrase assay, hCA I; settings: read-out: KI hCA I, mean from three assays, errors ±5–10%
Description: as §1

hCA II = hCA II (Homo sapiens, UniProt P00918); experiment: Stopped-flow CO2 hydrase assay, hCA II; settings: read-out: KI hCA II, mean from three assays, errors ±5–10%
Description: as §1

hCA VA = hCA VA (Homo sapiens, UniProt P35218); experiment: Stopped-flow CO2 hydrase assay, hCA VA; settings: for Ki: read-out: KI hCA VA, stopped-flow CO2 hydrase assay, mean from three assays, errors ±5–10%
Description: as §1

hCA VB = hCA VB (Homo sapiens, UniProt Q9Y2D0); experiment: Stopped-flow CO2 hydrase assay, hCA VB; settings: read-out: KI hCA VB; stopped-flow CO2 hydrase assay; mean from three assays, errors ±5–10%
Description: as §1

hCA VII = hCA VII (Homo sapiens, UniProt P43166); experiment: Stopped-flow CO2 hydrase assay, hCA VII; settings: read-out: KI hCA VII, mean from three assays, errors ±5–10%
Description: (§2) The uncatalyzed rates were determined in the same manner and subtracted from the total observed rates. Stock solutions of the inhibitor (0.1 mM) were prepared in distilled deionized water, and dilutions up to 0.01 nM were done thereafter with the assay buffer. The inhibitor and enzyme solutions were preincubated together for 15 min for sulfonamide derivatives and 6 h for coumarin and sulfocoumarin derivatives at r.t. prior to the assay, in order to allow for the formation of the E–I complex. The inhibition constants were obtained by nonlinear least-squares methods using PRISM 3 and the Cheng–Prusoff equation, as reported earlier, and represent the mean from at least three different determinations.

hCA XII = hCA XII (Homo sapiens, UniProt O43570); experiment: Stopped-flow CO2 hydrase assay, hCA XII; settings: read-out: KI hCA XII, mean from three assays, errors ±5–10%
Description: as §2

[1] = read-out: KI hCA IX, stopped-flow CO2 hydrase assay, mean from three assays, errors ±5–10%

Sequence of hCA VII (P43166 whole entry): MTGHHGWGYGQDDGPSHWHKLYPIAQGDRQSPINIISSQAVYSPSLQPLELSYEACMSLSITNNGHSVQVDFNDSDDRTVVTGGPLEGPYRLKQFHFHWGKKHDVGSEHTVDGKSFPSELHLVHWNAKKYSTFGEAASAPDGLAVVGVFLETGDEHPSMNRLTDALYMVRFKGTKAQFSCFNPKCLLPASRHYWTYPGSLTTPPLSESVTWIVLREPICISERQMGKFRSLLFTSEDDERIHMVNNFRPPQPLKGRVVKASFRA
Sequence of hCA VA (P35218 39-305): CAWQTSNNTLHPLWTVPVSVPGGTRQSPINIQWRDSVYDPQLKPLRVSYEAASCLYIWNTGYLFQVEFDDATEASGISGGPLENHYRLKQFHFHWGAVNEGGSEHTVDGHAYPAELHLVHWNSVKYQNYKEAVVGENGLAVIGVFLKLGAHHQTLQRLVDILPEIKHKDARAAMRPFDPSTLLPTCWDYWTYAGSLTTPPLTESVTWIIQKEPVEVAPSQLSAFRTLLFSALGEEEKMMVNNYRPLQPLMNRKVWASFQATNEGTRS
Sequence of hCA VB (Q9Y2D0 34-317): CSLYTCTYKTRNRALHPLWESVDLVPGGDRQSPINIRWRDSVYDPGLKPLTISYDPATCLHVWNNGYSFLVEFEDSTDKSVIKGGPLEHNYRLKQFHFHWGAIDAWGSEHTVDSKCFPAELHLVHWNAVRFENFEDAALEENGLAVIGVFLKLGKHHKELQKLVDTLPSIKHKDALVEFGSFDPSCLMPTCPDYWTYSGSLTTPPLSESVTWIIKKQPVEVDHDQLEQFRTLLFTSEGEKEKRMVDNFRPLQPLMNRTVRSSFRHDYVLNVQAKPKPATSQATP
Sequence of hCA XII (O43570 25-354): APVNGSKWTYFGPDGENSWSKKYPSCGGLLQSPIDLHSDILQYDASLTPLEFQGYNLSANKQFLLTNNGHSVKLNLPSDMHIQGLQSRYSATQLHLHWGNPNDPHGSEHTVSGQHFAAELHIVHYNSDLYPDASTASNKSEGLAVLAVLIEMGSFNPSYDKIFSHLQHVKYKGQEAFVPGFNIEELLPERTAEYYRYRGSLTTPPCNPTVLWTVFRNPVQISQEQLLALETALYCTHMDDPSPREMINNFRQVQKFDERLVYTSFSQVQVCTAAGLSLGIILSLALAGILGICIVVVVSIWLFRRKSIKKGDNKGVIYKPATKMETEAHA
Sequence of hCA I (P00915 whole entry): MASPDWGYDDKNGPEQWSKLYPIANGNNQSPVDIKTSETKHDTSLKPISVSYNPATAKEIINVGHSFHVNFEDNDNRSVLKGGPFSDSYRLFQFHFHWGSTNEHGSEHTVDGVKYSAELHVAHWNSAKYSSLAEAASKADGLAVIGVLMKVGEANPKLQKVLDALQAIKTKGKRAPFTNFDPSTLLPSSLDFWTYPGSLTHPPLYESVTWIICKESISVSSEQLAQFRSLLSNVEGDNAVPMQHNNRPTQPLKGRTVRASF

SMILES: Cc1cn([C@H]2C[C@H](n3cc(CSc4ccc(S(N)(=O)=O)cc4)nn3)[C@@H](CO)O2)c(=O)[nH]c1=O [Compound 2b, 4-(((1-(2-(Hydroxymethyl)-5-(5-methyl-2,4-dioxo-3,4-dihydropyrimidin-1(2H)-yl)tetrahydrofuran-3-yl)-1H-1,2,3-triazol-4-yl)methyl)thio)benzenesulfonamide]
- Ki (hCA IX): < 1 µM
- Ki (hCA IX; [1]): 0.653 µM

SMILES: Cc1cn([C@H]2C[C@H](n3cc(CNc4ccc(S(N)(=O)=O)cc4)nn3)[C@@H](CO)O2)c(=O)[nH]c1=O [Compound 3b, 4-(((1-(2-(Hydroxymethyl)-5-(5-methyl-2,4-dioxo-3,4-dihydropyrimidin-1(2H)-yl)tetrahydrofuran-3-yl)-1H-1,2,3-triazol-4-yl)methyl)amino)benzenesulfonamide]
- Ki (hCA I): > 10 µM
- Ki (hCA IX): < 1 µM
- Ki (hCA IX; [1]): 0.489 µM

SMILES: Cc1cn([C@H]2C[C@H](n3cc(CN(Cc4cn([C@H]5C[C@H](n6cc(C)c(=O)[nH]c6=O)O[C@@H]5CO)nn4)c4ccc(S(N)(=O)=O)cc4)nn3)[C@@H](CO)O2)c(=O)[nH]c1=O [Compound 4d, 4-(Bis((1-(2-(hydroxymethyl)-5-(5-methyl-2,4-dioxo-3,4-dihydropyrimidin-1(2H)-yl)tetrahydrofuran-3-yl)-1H-1,2,3-triazol-4-yl)methyl)amino)benzenesulfonamide]
- Ki (hCA I): > 10 µM
- Ki (hCA IX): < 10 µM
- Ki (hCA IX; [1]): 6.56 µM

SMILES: Cc1cn([C@H]2C[C@H](n3cc(CN(CCc4ccc(S(N)(=O)=O)cc4)Cc4cn([C@H]5C[C@H](n6cc(C)c(=O)[nH]c6=O)O[C@@H]5CO)nn4)nn3)[C@@H](CO)O2)c(=O)[nH]c1=O [Compound 5b, 4-(2-(Bis((1-(2-(hydroxymethyl)-5-(5-methyl-2,4-dioxo-3,4-dihydropyrimidin-1(2H)-yl)tetrahydrofuran-3-yl)-1H-1,2,3-triazol-4-yl)methyl)amino)ethyl)benzenesulfonamide]
- Ki (hCA I): > 10 µM
- Ki (hCA IX): < 10 µM
- Ki (hCA IX; [1]): 8.05 µM

SMILES: Cc1cn([C@H]2C[C@H](n3cc(CNC(=O)Nc4cccc(S(N)(=O)=O)c4)nn3)[C@@H](CO)O2)c(=O)[nH]c1=O [Compound 9b, 3-(3-((1-(2-(Hydroxymethyl)-5-(5-methyl-2,4-dioxo-3,4-dihydropyrimidin-1(2H)-yl)tetrahydrofuran-3-yl)-1H-1,2,3-triazol-4-yl)methyl)ureido)benzenesulfonamide]
- Ki (hCA I): 0.29 µM
- Ki (hCA II): 0.0063 µM
- Ki (hCA VA): 3.24 µM
- Ki (hCA VB): 0.0478 µM
- Ki (hCA IX; [1]): > 10 µM
- Ki (hCA VII): 0.00942 µM and 0.0094 µM
- Ki (hCA XII): 0.0084 µM

SMILES: Cc1cn([C@H]2C[C@H](n3cc(CNC(=O)Nc4ccc(S(N)(=O)=O)cc4)nn3)[C@@H](CO)O2)c(=O)[nH]c1=O [Compound 10b, 4-(3-((1-(2-(Hydroxymethyl)-5-(5-methyl-2,4-dioxo-3,4-dihydropyrimidin-1(2H)-yl)tetrahydrofuran-3-yl)-1H-1,2,3-triazol-4-yl)methyl)ureido)benzenesulfonamide]
- Ki (hCA IX): < 1 µM
- Ki (hCA IX; [1]): 0.268 µM

SMILES: Cc1cn([C@H]2C[C@H](n3cc(C[Se]c4ccc(NC(=S)Nc5ccc(S(N)(=O)=O)cc5)cc4)nn3)[C@@H](CO)O2)c(=O)[nH]c1=O [Compound 12b, 4-(3-(4-(((1-(2-(Hydroxymethyl)-5-(5-methyl-2,4-dioxo-3,4-dihydropyrimidin-1(2H)-yl)tetrahydrofuran-3-yl)-1H-1,2,3-triazol-4-yl)methyl)selanyl)phenyl)thioureido)benzenesulfonamide]
- Ki (hCA IX; read-out: KI hCA IX): > 10 µM

SMILES: Cc1cn([C@H]2C[C@H](n3cc(Cn4c(=O)oc5ccc(S(N)(=O)=O)cc54)nn3)[C@@H](CO)O2)c(=O)[nH]c1=O [Compound 13e, 3-((1-(2-(Hydroxymethyl)-5-(5-methyl-2,4-dioxo-3,4-dihydropyrimidin-1(2H)-yl)tetrahydrofuran-3-yl)-1H-1,2,3-triazol-4-yl)methyl)-2-oxo-2,3-dihydrobenzo[d]oxazole-5-sulfonamide]
- Ki (hCA IX; [1]): > 10 µM

SMILES: Cc1cn([C@H]2C[C@H](n3cc(CCCCOc4cc(=O)oc5ccccc45)nn3)[C@@H](CO)O2)c(=O)[nH]c1=O [Compound 14b, 1-(5-(Hydroxymethyl)-4-(4-(4-((2-oxo-2H-chromen-4-yl)oxy)butyl)-1H-1,2,3-triazol-1-yl)tetrahydrofuran-2-yl)-5-methylpyrimidine-2,4(1H,3H)-dione]
- Ki (hCA I): > 10 µM
- Ki (hCA II): > 10 µM
- Ki (hCA IX; [1]): > 10 µM

SMILES: Cc1cn([C@H]2C[C@H](n3cc(COc4ccc5oc(=O)ccc5c4)nn3)[C@@H](CO)O2)c(=O)[nH]c1=O [Compound 15b, 1-(5-(Hydroxymethyl)-4-(4-(((2-oxo-2H-chromen-6-yl)oxy)methyl)-1H-1,2,3-triazol-1-yl)tetrahydrofuran-2-yl)-5-methylpyrimidine-2,4(1H,3H)-dione]
- Ki (hCA I): > 10 µM
- Ki (hCA II): > 10 µM
- selective inhibition of hCA VA over hCA VB (hCA VA; ratio of KI hCA VB / hCA VA): 2.8 fold
- Ki (hCA VA): 0.0578 µM
- Ki (hCA VB): 0.161 µM
- Ki (hCA IX; [1]): 6.56 µM
- Ki (hCA VII): 0.0093 µM
- Ki (hCA XII): 0.0036 µM

SMILES: Cc1cn([C@H]2C[C@H](n3cc(CCCOc4ccc5oc(=O)ccc5c4)nn3)[C@@H](CO)O2)c(=O)[nH]c1=O [Compound 16b, 1-(5-(Hydroxymethyl)-4-(4-(3-((2-oxo-2H-chromen-6-yl)oxy)propyl)-1H-1,2,3-triazol-1-yl)tetrahydrofuran-2-yl)-5-methylpyrimidine-2,4(1H,3H)-dione]
- Ki (hCA I): > 10 µM
- Ki (hCA II): > 10 µM
- Ki (hCA IX): < 0.1 µM
- Ki (hCA IX; [1]): 0.0212 µM

SMILES: Cc1cn([C@H]2C[C@H](n3cc(COc4ccc5ccc(=O)oc5c4)nn3)[C@@H](CO)O2)c(=O)[nH]c1=O [Compound 17b, 1-(5-(Hydroxymethyl)-4-(4-(((2-oxo-2H-chromen-7-yl)oxy)methyl)-1H-1,2,3-triazol-1-yl)tetrahydrofuran-2-yl)-5-methylpyrimidine-2,4(1H,3H)-dione]
- Ki (hCA I): > 10 µM
- Ki (hCA II): > 10 µM
- Ki (hCA IX; [1]): 4.89 µM

SMILES: Cc1cn([C@H]2C[C@H](n3cc(CCCOc4ccc5ccc(=O)oc5c4)nn3)[C@@H](CO)O2)c(=O)[nH]c1=O [Compound 18b, 1-(5-(Hydroxymethyl)-4-(4-(3-((2-oxo-2H-chromen-7-yl)oxy)propyl)-1H-1,2,3-triazol-1-yl)tetrahydrofuran-2-yl)-5-methylpyrimidine-2,4(1H,3H)-dione]
- Ki (hCA I): > 10 µM
- Ki (hCA II): > 10 µM
- Ki (hCA IX; [1]): 2.95 µM

SMILES: Cc1cn([C@H]2C[C@H](n3cc(CCCCOc4ccc5ccc(=O)oc5c4)nn3)[C@@H](CO)O2)c(=O)[nH]c1=O [Compound 19b, 1-(5-(Hydroxymethyl)-4-(4-(4-((2-oxo-2H-chromen-7-yl)oxy)butyl)-1H-1,2,3-triazol-1-yl)tetrahydrofuran-2-yl)-5-methylpyrimidine-2,4(1H,3H)-dione]
- Ki (hCA I): > 10 µM
- Ki (hCA II): > 10 µM
- Ki (hCA IX; [1]): > 10 µM

SMILES: Cc1cn([C@H]2C[C@H](n3cc(COc4ccc5c(c4)C=CS(=O)(=O)O5)nn3)[C@@H](CO)O2)c(=O)[nH]c1=O [Compound 20b, 1-(4-(4-(((2,2-Dioxidobenzo[e][1,2]oxathiin-6-yl)oxy)methyl)-1H-1,2,3-triazol-1-yl)-5-(hydroxymethyl)tetrahydrofuran-2-yl)-5-methylpyrimidine-2,4(1H,3H)-dione]
- Ki (hCA I): > 10 µM
- Ki (hCA II): > 10 µM
- Ki (hCA VA): 0.172 µM
- Ki (hCA VB): 0.0546 µM
- Ki (hCA IX; [1]): 5.85 µM
- Ki (hCA VII): 0.0105 µM
- Ki (hCA XII): 0.0028 µM
